Measurements as given in US20250213598A1, “COMPOUNDS AS ELASTASE INHIBITOR AND SOLID FORM THEREOF” (priority 2023, published 2025).
Converted amounts (≈) assume the structure as drawn.

Experiments:
[1] = Solid-state stability, 2-week study (HPLC, XRPD); format: physicochemical; conditions: for crystal form changes in the two-week stability assessment: 25° C./60% RH, 40° C./75% RH, two weeks
Experimental: The solubility and stability are analyzed using an Agilent 1260 infinityII Binary Pump. • 4.

[2] = Photostability of crystal form A and amorphous form; format: physicochemical; conditions: for Content (%) / Crystal form / Purity (area %) / Relative to initial (%): After 11 days, 25° C., illumination 5000 lux/h, near-ultraviolet 90 μW/cm^2; for crystal form changes in the photostability test: light conditions
Experimental: A certain amount of crystal form A and amorphous form of the compound shown in Formula (I) were respectively taken, and the stabilities of crystal form A and amorphous form were evaluated under light conditions.

[3] = Dynamic solubility in citrate buffer solutions at room temperature; format: physicochemical; conditions: for pH: supernatant
Experimental: During the test, about 200 mg of crystal form A or the amorphous form was added into 5 mL of buffered salt medium (approximately 40 mg/mL), and stirred magnetically at room temperature (approximately 25° C.). 1 mL of the suspension (or clear solution) taken at each of 2, 8, and 30 hours were centrifugated. The obtained solid is for crystal form detection (XRPD), and the supernatant/clear liquid after filtration is for solubility testing (HPLC) and pH testing.

[4] = Mechanical stability of crystal form A (grinding experiment, XRPD); format: physicochemical; conditions: room temperature
Experimental: A certain amount of crystal form A of the compound shown in Formula (I) was weighed, and ground dry or wet with an appropriate amount of water for 3 minutes at room temperature (˜23° C., 70% RH) to evaluate the mechanical stability of the crystal form A. The XRPD spectrums are shown in FIG. 6.

[5] = target: T1, Recombinant Human Elastase (rhElastase) (Homo sapiens, UniProt P08246); assay: Activity test against recombinant human elastase (rhElastase); format: biochemical
T1 sequence (P08246 30-267): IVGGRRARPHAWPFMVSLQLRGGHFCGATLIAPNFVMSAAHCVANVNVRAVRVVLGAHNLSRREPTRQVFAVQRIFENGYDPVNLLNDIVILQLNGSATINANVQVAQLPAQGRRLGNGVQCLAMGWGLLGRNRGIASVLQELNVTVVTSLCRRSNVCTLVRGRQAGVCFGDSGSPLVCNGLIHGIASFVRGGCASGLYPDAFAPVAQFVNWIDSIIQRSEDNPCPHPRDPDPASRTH
Experimental: Activation of protease: rhElastase was diluted to 2 μM with an activation buffer containing 1.25 μM Recombinant Mouse Active Cathepsin C Protein (mCathepsin C), and incubated at 37° C. for 2 h. After activation, the mature rhElastase was diluted to form a 3.33 nM rhElastase reaction solution. The compound was diluted in serial with DMSO and added to a 384-well plate (3-fold serial dilution, 10 concentration points, duplicate wells). For the 384-well plate containing the compound, columns 1-12 each was added with 15 μL of the reaction buffer and columns 13-24 each was added with 15 μL of the rhElastase reaction solution. The plate was pre-incubated at 25° C. for 30 min and added with 5 μL of the substrate to start the reaction. The final concentration of rhElastase is 2.5 nM, and the final concentration of the substrate is 3.125 μM. The final concentration of DMSO in the reaction system is 1%. After incubating at 37° C. for 60 min, the fluorescence value was read with an M4 microplate reader. The detection conditions are Ex/Em=380 nm/460 nm.

[6] = Pharmacokinetic experiment in Sprague-Dawley rats (intravenous / inhalation; plasma and lung); format: in vivo
Experimental: The appropriate amount of sodium citrate was weighed and dissolved in water to prepare a sodium citrate solution with a concentration of 1 mg/ml. After the addition of compound (I) (appropriate amount) under stirring, the sodium citrate solution was slowly added with 1 M sodium hydroxide solution to adjust the pH to 5.0±0.2. After stirring, dissolving and filtering, a stock solution of compound (I) with a concentration of 80 mg/ml was obtained, which is administrated by inhalation. The stock solution was diluted in a continuous gradient method to give a solution of compound (I) with a concentration of 0.4 mg/ml for intravenous administration.
21 male Sprague-Dawley rats was selected and divided into 7 groups (3 animals/group). Group 1 was administered intravenously at a dose of 2 mg/kg, and groups 2-7 are administered by inhalation at a designed dose of 15 mg/kg (an actual delivered dose is 16.712 mg/kg). For animals in groups 1-2, blood samples were collected before administration and at 2 min, 5 min, 15 min, 30 min, 1 h, 2 h, 4 h, 6 h, 8 h, and 24 h after administration. For animals in groups 3-7, lung tissues and blood samples were collected at 0.25 h, 1 h, 2 h, 6 h, and 12 h after administration (i.e., 2.25 h, 3 h, 4 h, 8 h, and 14 h After the start of the drug administration). The LC-MS/MS was used to analyze the concentration of compound (I) in the plasma and lung tissues of rats, and the non-compartmental model (NCA) of the pharmacokinetic analysis software WinNonlin (8.0.0.3176) is used to analyze the drug concentrations in plasma and lung tissue and calculate the pharmacokinetic parameters.

[7] = Citrate buffer pH = 3.5, room temperature, 2 hours
[8] = Citrate buffer pH = 3.5, room temperature, 8 hours
[9] = Citrate buffer pH = 3.5, room temperature, 30 hours
[10] = Citrate buffer pH = 4.5, room temperature, 2 hours
[11] = Citrate buffer pH = 4.5, room temperature, 8 hours
[12] = Citrate buffer pH = 4.5, room temperature, 30 hours
[13] = citrate buffer pH = 3.5, 2 hours
[14] = citrate buffer pH = 3.5, 8 hours
[15] = citrate buffer pH = 3.5, 30 hours
[16] = citrate buffer pH = 4.5, 2 hours
[17] = citrate buffer pH = 4.5, 8 hours
[18] = citrate buffer pH = 4.5, 30 hours
[19] = Inhalation, 15 mg/kg, SD rats, matrix Lung
[20] = Inhalation, 15 mg/kg, male SD rats, plasma
[21] = Intravenous, 2 mg/kg, male SD rats, plasma

C#Cc1c(F)ccc2cc(O)cc(-c3ncc4c(N5CC6CCC(C5)N6)nc(OC[C@@]56CCCN5C[C@H](F)C6)nc4c3F)c12 [Amorphous]
Content (%) ([1]; 25° C./60 % RH, 1 week): 88.54%
Crystal form ([1]; 25° C./60 % RH, 1 week): Amorphous
Purity (area %) ([1]; 25° C./60 % RH, 1 week): 97.58 area %
Relative to initial (%) ([1]; 25° C./60 % RH, 1 week): 99.0%
Content (%) ([1]; 25° C./60 % RH, 2 weeks): 86.62%
Crystal form ([1]; 25° C./60 % RH, 2 weeks): Amorphous
Purity (area %) ([1]; 25° C./60 % RH, 2 weeks): 96.98 area %
Relative to initial (%) ([1]; 25° C./60 % RH, 2 weeks): 98.4%
crystal form changes in the two-week stability assessment ([1]; 60° C.): neither the amorphous form nor crystal form A underwent crystal form changes
Content (%) ([1]; 40° C./75 % RH, 1 week): 87.54%
Crystal form ([1]; 40° C./75 % RH, 1 week): Amorphous
Purity (area %) ([1]; 40° C./75 % RH, 1 week): 97.87 area %
Relative to initial (%) ([1]; 40° C./75 % RH, 1 week): 99.3%
Content (%) ([1]; 40° C./75 % RH, 2 weeks): 86.77%
Crystal form ([1]; 40° C./75 % RH, 2 weeks): Amorphous
Purity (area %) ([1]; 40° C./75 % RH, 2 weeks): 96.87 area %
Relative to initial (%) ([1]; 40° C./75 % RH, 2 weeks): 98.3%
Content (%) ([1]; 60° C., 1 week): 90.96%
Crystal form ([1]; 60° C., 1 week): Amorphous
Purity (area %) ([1]; 60° C., 1 week): 96.97 area %
Relative to initial (%) ([1]; 60° C., 1 week): 98.4%
Content (%) ([1]; 60° C., 2 weeks): 88.93%
Crystal form ([1]; 60° C., 2 weeks): Amorphous
Purity (area %) ([1]; 60° C., 2 weeks): 96.14 area %
Relative to initial (%) ([1]; 60° C., 2 weeks): 97.5%
Content (%) ([1]; initial): 90.28%
Crystal form ([1]; initial): Amorphous
Purity (area %) ([1]; initial): 98.56 area %
Content (%) [2]: 82.68%
Crystal form [2]: Amorphous
Purity (area %) [2]: 93.42 area %
Relative to initial (%) [2]: 94.8%
Initial Sample Content (%) [2]: 90.28%
Initial Sample Purity (area %) [2]: 98.56 area %
crystal form changes in the photostability test [2]: neither the amorphous form nor crystal form A underwent crystal form changes
Solubility [3, 7]: >37.77 mg/mL
Solubility [3, 8]: >38.95 mg/mL
Solubility [3, 9]: >37.45 mg/mL
Solubility [3, 10]: >33.47 mg/mL
Solubility [3, 11]: >35.71 mg/mL
Solubility [3, 12]: >37.52 mg/mL
solubility in the citrate buffer systems (in words) ([3]; citrate buffer pH=3.5 and pH=4.5): excellent solubility
pH [3, 13]: 3.63
pH [3, 14]: 3.59
pH [3, 15]: 3.56
pH [3, 16]: 4.46
pH [3, 17]: 4.44
pH [3, 18]: 4.40

CC(C)[C@H](NC(=O)[C@@H]1CCCN1C(=O)[C@@H](NC(=O)c1ccc(C(=O)NCC(=O)O)cc1)C(C)C)B1OB([C@@H](NC(=O)[C@@H]2CCCN2C(=O)[C@@H](NC(=O)c2ccc(C(=O)NCC(=O)O)cc2)C(C)C)C(C)C)OB([C@@H](NC(=O)[C@@H]2CCCN2C(=O)[C@@H](NC(=O)c2ccc(C(=O)NCC(=O)O)cc2)C(C)C)C(C)C)O1 [Form A]
Achieved Crystal Form ([4]; Dry grind for 3 minutes): Amorphous
Achieved Crystal Form ([4]; Dry grind for 3 minutes, listed as crystal form A): transformed into the amorphous form
Achieved Crystal Form ([4]; Wet grind with water for 3 minutes): Form A
Achieved Crystal Form ([4]; Wet grind with water for 3 minutes, listed as crystal form A): remains unchanged
Content (%) ([1]; 25° C./60 % RH, 1 week): 86.07%
Crystal form ([1]; 25° C./60 % RH, 1 week): Form A
Purity (area %) ([1]; 25° C./60 % RH, 1 week): 97.98 area %
Relative to initial (%) ([1]; 25° C./60 % RH, 1 week): 98.9%
Content (%) ([1]; 25° C./60 % RH, 2 weeks): 86.60%
Crystal form ([1]; 25° C./60 % RH, 2 weeks): Form A
Purity (area %) ([1]; 25° C./60 % RH, 2 weeks): 97.68 area %
Relative to initial (%) ([1]; 25° C./60 % RH, 2 weeks): 98.6%
crystal form changes in the two-week stability assessment ([1]; 60° C.): neither the amorphous form nor crystal form A underwent crystal form changes
Content (%) ([1]; 40° C./75 % RH, 1 week): 86.41%
Crystal form ([1]; 40° C./75 % RH, 1 week): Form A
Purity (area %) ([1]; 40° C./75 % RH, 1 week): 97.96 area %
Relative to initial (%) ([1]; 40° C./75 % RH, 1 week): 98.9%
Content (%) ([1]; 40° C./75 % RH, 2 weeks): 86.85%
Crystal form ([1]; 40° C./75 % RH, 2 weeks): Form A
Purity (area %) ([1]; 40° C./75 % RH, 2 weeks): 97.76 area %
Relative to initial (%) ([1]; 40° C./75 % RH, 2 weeks): 98.7%
Content (%) ([1]; 60° C., 1 week): 87.34%
Crystal form ([1]; 60° C., 1 week): Form A
Purity (area %) ([1]; 60° C., 1 week): 98.16 area %
Relative to initial (%) ([1]; 60° C., 1 week): 99.1%
Content (%) ([1]; 60° C., 2 weeks): 87.98%
Crystal form ([1]; 60° C., 2 weeks): Form A
Purity (area %) ([1]; 60° C., 2 weeks): 97.50 area %
Relative to initial (%) ([1]; 60° C., 2 weeks): 98.4%
Content (%) ([1]; initial): 87.08%
Crystal form ([1]; initial): Form A
Purity (area %) ([1]; initial): 99.05 area %
Content (%) [2]: 85.00%
Crystal form [2]: Form A
Purity (area %) [2]: 97.92 area %
Relative to initial (%) [2]: 98.9%
Initial Sample Content (%) [2]: 87.08%
Initial Sample Purity (area %) [2]: 99.05 area %
crystal form changes in the photostability test [2]: neither the amorphous form nor crystal form A underwent crystal form changes
Solubility [3, 7]: 6.15 mg/mL (≈ 4.1 mM)
Solubility [3, 8]: 15.28 mg/mL (≈ 10.2 mM)
Solubility [3, 9]: 27.16 mg/mL (≈ 18.1 mM)
Solubility [3, 10]: 16.06 mg/mL (≈ 10.7 mM)
Solubility [3, 11]: 31.34 mg/mL (≈ 20.9 mM)
Solubility [3, 12]: >34.94 mg/mL
pH [3, 13]: 3.56
pH [3, 14]: 3.58
pH [3, 15]: 3.56
pH [3, 16]: 4.48
pH [3, 17]: 4.46
pH [3, 18]: 4.38

CC(C)C(NC(=O)C1CCCN1C(=O)C(NC(=O)c1ccc(C(=O)NCC(=O)O)cc1)C(C)C)B1OB(C(NC(=O)C2CCCN2C(=O)C(NC(=O)c2ccc(C(=O)NCC(=O)O)cc2)C(C)C)C(C)C)OB(C(NC(=O)C2CCCN2C(=O)C(NC(=O)c2ccc(C(=O)NCC(=O)O)cc2)C(C)C)C(C)C)O1 (stereo not shown) [compound (I)]
IC50 [5]: 1.32 nM
Cmax [6, 19]: 67568.60
Tmax [6, 19]: 2.25 h
t1/2 [6, 19]: 2.69 h
Tmax ([6]; Inhalation, 15 mg/kg, SD rats, matrix Plasma): 2.25 h
Cmax ([6]; Inhalation, 15 mg/kg, SD rats, matrix Plasma, in ng/mL): 320.58
AUClast ([6]; Inhalation, 15 mg/kg, SD rats, matrix Plasma, in ng·h/mL): 622.35
F % ([6]; Inhalation, 15 mg/kg, male SD rats): 18.09%
AUClast [6, 20]: 1501.79 ± 486.138 ng·h/mL
Cmax [6, 20]: 798.55 ± 333.20 ng/mL
Tmax [6, 20]: 2.03 ± 0.0 h
t1/2 [6, 20]: 1.91 ± 1.05 h
AUClast [6, 21]: 1107.18 ± 144.07 ng·h/mL
Cmax [6, 21]: 5331.49 ± 696.49 ng/mL
Tmax [6, 21]: 0.03 ± 0.0 h
t1/2 [6, 21]: 0.33 ± 0.10 h
